Experimental data: PMC4838552 (ChemMedChem, 2016)

Experiments:
RPA70N = RPA70N (Homo sapiens, UniProt P27694); assay: FPA competition assay; type: binding; conditions: for LE (ligand efficiency): LE = 1.4*pKd/HAC, using the FPA data
[1] = molecular target: ssDNA binding to RPA70AB in the RPA70NAB construct (Homo sapiens, UniProt P27694); assay: Fluorescence-based DNA binding assay; conditions: Kd for ssDNA binding to RPA70AB in RPA70NAB, absence vs presence of compound
[2] = Caco-2 permeability study; type: in vitro ADME; conditions: human
Protein binding study = type: in vitro ADME

LE (ligand efficiency) (RPA70N)	potency relative to 11 (fold less potent) (RPA70N; compared with compound 11)	effect on ssDNA binding to RPA [1]	Papp A→B [2]	fraction unbound (Protein binding study)	Compound
0.21	–	–	–	–	Cc1ccc(C(=O)Nc2ccccc2C(=O)O)cc1S(=O)(=O)Nc1ccc(Br)cc1 [Compound 11, 2-(3-(N-(4-bromophenyl)sulfamoyl)-4-methylbenzamido)benzoic acid]
0.21	equipotent	–	–	–	Cc1ccc(C(=O)Nc2ccccc2C(=O)O)cc1S(=O)(=O)Nc1cccc(Cl)c1 [Compound 18, 2-(3-(N-(3-chlorophenyl)sulfamoyl)-4-methylbenzamido)benzoic acid]
0.27	–	does not affect ssDNA binding to RPA	29.2 ×10⁻⁶ cm/s	0.002	Cc1ccc(C(=O)Nc2cc(Br)ccc2C(=O)O)cc1S(=O)(=O)Nc1ccc(Cl)c(Cl)c1 [Compound 20c, 4-Bromo-2-(3-(N-(3,4-dichlorophenyl)sulfamoyl)-4-methylbenzamido)benzoic acid]
